Reference: patent publication US8361802B2, “Fluorescent ozone sensor” (University of Pittsburgh—Of the Commonwealth System of …, priority 2009, dated 2013)

Assays:
[1] = Ozone detection in indoor air on adsorbent paper strips
Protocol: One embodiment of the present invention can be a badge that contains compound 4 that may be worn by patients so their total ozone exposure can be continuously measured through the day. A proof-of-principle experiment was conducted with compound 4 and compound 1 as a comparative. A solution of compound 4 (500 nmol) in dimethylsulfoxide (DMSO) was absorbed on a piece of adsorbent paper and allowed to dry. The paper strips were stored in an office room that had two photocopiers and two laser printers. After eight hours, the paper strips were removed and placed in a vial that contained oH 7 buffer to elute the dyes. […] The deviation in these values is presumably because of photobleaching and the lack of specificity of compound 1 towards various ROS, including singlet oxygen.
Ozone detection in indoor air. FIG. 10 are photographic illustrations of results of Ozone detection tests in indoor air using the present invention. The top photograph is a Kimwipe® before placing into photocopy room for 8 hours. The bottom photographs are a Kimwipe® in buffer for absorbance and fluorescence measurement, wherein the left photograph is an indigo carmine taken in room light), and the right photograph is compound 4 taken under long-range UV lamp. One adsorbent paper (Kimwipe®) was cut into two 11×9 cm pieces. Solution A (50 μL, 500 nmol of compound 4) was added to one portion of the Kimwipe® and allowed to dry (FIG. 10, top right). Solution B (50 μL, 500 nmol of indigo carmine) was added to the other portion of the Kimwipe® and allowed to dry (FIG. 10, top left). After overnight drying in a laboratory drawer, the paper strips were moved to a poorly ventilated photocopy room (2 photocopiers and 2 laser printers) for 8 hours. The controls remained in the laboratory drawer. After 8 hours, the samples were placed into a scintillation vial, and the dyes were eluted with pH 7 buffer (6.0 mL) (˜5 min) before fluorescence and absorbance measurement. […] FIGS. 3C-D error bars were determined from the calculated mean and standard deviation (Prism 5.0a, GraphPad Software, Inc.).

[2] = Indigo carmine with various ROS; conditions: 12.5 μM indigo carmine
Protocol: Indigo carmine with various ROS. The ROS experiments described above were repeated using indigo carmine (Solution B, [Indigo Carmine]final=12.5 μM in all cases) in triplicate. […] FIG. 6A is the Absorbance spectrum of indigo carmine. FIG. 6B is the ROS with indigo carmine. Error bars were determined from the calculated mean and standard deviation (Prism 5.0a, GraphPad Software, Inc.).

[3] = Fluorescence spectroscopy of the compounds; format: physicochemical
Protocol: Fluorescence spectroscopy. Fluorescence spectra were recorded in a 1×1-cm disposable cuvette (VWR; catalog number 58017-880) on a Jobin Yvon FluoroMax-3 spectrometer under the control of a Windows-based PC running FluorEssence software. The samples were excited at 497 nm and the emission intensities were collected at 523 nm. All spectra were corrected for emission intensity using the manufacturer supplied photomultiplier curves.
FIGS. 4A-H illustrate absorbance and fluorescence emission of compounds 4, 7, 8, and S1, wherein fluorescence and emission spectra were measured in 0.1% DMSO in pH 7 buffer. FIG. 4A is absorbance spectrum of compound 4. FIG. 4B is Emission spectrum of compound 4. FIG. 4C is Absorbance spectrum of compound 7. FIG. 4D is Emission spectrum of compound 7. FIG. 4E is Absorbance spectrum of compound 8. FIG. 4F is Emission spectrum of compound 8. FIG. 4G is Absorbance spectrum of compound S1. FIG. 4H is Emission spectrum of compound S1.

[4] = Cytotoxicity against HeLa cells (MTS assay); format: cell-based; conditions: human, 2000 cells/well, 10 nM to 200 μM, read-out: 1050 (cytotoxicity)
Protocol: FIG. 4J is the cytotoxicity of compound 8 against HeLa cells seeds at a density of 2000 cells/well is a 96-well plate;
FIG. 4I is the ROS with compound 8. The experiment was performed in duplicate. Error bars were determined from the calculated mean and standard deviation (Prism 5.0a, GraphPad Software, Inc.). FIG. 4J is the cytotoxicity of compound 8 against HeLa cells seeds at a density of 2000 cells/well is a 96-well plate. Concentrations of compound 8 ranged from 10 nM to 200 μM. The assay was performed for 3 days, and the relative cell density was determined by an MTS assay (Promega CellTiter 96® AQueous Non-Radioactive Cell Proliferation Assay).

[5] = test system: Human bronchial epithelial cells (BEAS-2B); assay: Live-cell imaging of human bronchial epithelial cells; format: cell-based
Protocol: Human bronchial epithelial cells (BEAS-2B) (American Type Culture Collectin) were grown in LHC-9 medium (Invitrogen) on glass-bottomed Petri dishes (MatTek) precoated with 0.01 mg ml^−1 of human fibronectin (Invitrogen), 0.029 mg ml^−1 Vitrogen 100 (Cohesion) and 0.01 mg ml^−1 bovine serum albumin (Invitrogen) in LHC-9 medium. Immediately prior to imaging, cells were rinsed with Hank's balanced salt solution, which contained calcium and magnesium, and placed inside a temperature-controlled, airtight environmental chamber and maintained at 37° C. and 5% CO2. Images were obtained using a Nikon TE2000E-PFS (Perfect focus system) microscope equipped with a […] oil-immersion objective (Nikon, CFI PlanFluor, NA 1.3) and a fluorescien isothiocyanate longpass filter set (Chroma), a Q-Imaging SRV CCD camera (Q-imaging) and MetaMorph software (Molecular Devices). The motorized XYZ stage used was made by ASA (Eugege). Baseline images were collected before the addition of compound 8 and time-lapsed images obtained at 30 second intervals after the addition of compound 8 (250 nM). Once stage baseline had been achieved, multiple washes were carried out and the media replaced. The cells were then exposed to ozone (˜2.1 ppm) and monitored every 30 seconds for 15 minutes. Ozone was generated from medical grade oxygen (Valley Gas) via a model V1-0 ultraviolet ozonator (OREC) and analyzed with a Dasibi (Glendale) direct-reading instrument. Ozone concentrations were maintained by adjusting both the intensity of the ultraviolet light and the flow rate of oxygen. For each experiment, images were collected from six stages, with a minimum of five cells per position (a minimum of 30 cells per […]).
In another embodiment of the invention, human bronchial epitelial cells were incubated with compound 4 to determine ozone's role in cell biology. […] Based on studies why compound 4 and structurally related compounds are not fluorescent, it is believed that the hydroxymethyl group 4 may have been oxidized to give a more electron-withdrawing group, possible a carboxyl or aldehyde group, and so emit a strong fluorescence signal. To circumvent such an oxidation event, compound 8 was prepared specific for ozone. […] Once a steady baseline signal had been established and maintained for five minutes, ozone gas was generated within the airtight environmental chamber that housed the cell-culture dishes, and fluorescent signals were monitored using live-cell microscopy for approximately 15 minutes.
FIGS. 16A-H are photographs of live-cell imaging of human bronchial epithelial cells in the presence of ozone using compound 8. The left-hand panels (FIGS. A-E) are pseudocolour images that indicate the changes in emission intensity over time, and the right-hand panels show differential interference contrast images of the bronchial epithelial cells. FIG. 16A is before the addition of compound 8 (0 seconds). FIG. 16B illustrates the cell at 107 seconds that is a steady state intensity reached with compound 8 at 250 nM. FIG. 16C illustrates the cell at 326 seconds when ozone flow is started. FIG. 16D illustrates the cell at 536 seconds with the emission intensity increasing. FIG. 16E illustrates the cell at 675 seconds when emission maximum is reached. FIG. 16F illustrates the cell at 820 seconds when the cell starts to die. FIG. 16G illustrates the cell at 969 seconds where the cell emission continues to fall. FIG. 16H illustrates the cell at 1148 seconds when the ozone flow is stopped.

SMILES	decrease in absorbance at 610 nm ([1]; 500 nmol on adsorbent paper, photocopy room, eight hours) [%]	consumption of compound 1 ([1]; correlated from decrease in absorbance at 610 nm) [nmol]	decrease in absorbance at 610 nm with nearly all ROS [2]	fluorescence of the probe itself [3]	IC50 at 3 days [4] [µM]	fluorescent emissions inside the cells after ozone generation ([5]; 250 nM, ozone ~2.1 ppm, about 15 minutes)	time at which emission maximum is reached ([5]; 250 nM, ozone flow started at 326 seconds) [s]	fluorescence inside the cells in the absence of external ozone ([5]; human bronchial epithelial cells, no external ozone)
O=C1/C(=C2\Nc3ccc(S(=O)(=O)[O-])cc3C2=O)Nc2ccc(S(=O)(=O)[O-])cc21.[Na+].[Na+] [compound 1, indigo carmine]	77	387	11-70%					
C=CCCOc1cc2oc3cc(=O)c(Cl)cc-3c(-c3ccccc3C)c2cc1Cl [compound 8]				nearly non-fluorescent	43	time-dependent increase in fluorescent emissions occurred inside the cells	675	remained weakly fluorescent within the cells
